We go through 2 molecules from patent US7294710B2 (Japan Science and Technology Agency, priority 1999, dated 2007).

The test system of data set [1] is high-affinity uptake of choline in brain synaptosomes. To be noted: cited from earlier work.
The subject of data set [2] is low-affinity uptake of choline, distributed in every cells. The conditions noted are these: read-out: Ki of HC3 for low-affinity uptake of choline, higher HC3 concentration; cited from earlier work.
The target in data set [3] is T1, nematode high-affinity choline transporter cho-1 (C48D1.3) (Caenorhabditis elegans, UniProt O02228).
T1 construct: injecting each cRNA prepared from candidate full-length cDNAs; expressed in transfected cells; host or cells: Xenopus oocytes (stage V to VI) microinjected with capped cRNA transcribed from modified pSPUTK vector
T1 sequence (O02228 1-576): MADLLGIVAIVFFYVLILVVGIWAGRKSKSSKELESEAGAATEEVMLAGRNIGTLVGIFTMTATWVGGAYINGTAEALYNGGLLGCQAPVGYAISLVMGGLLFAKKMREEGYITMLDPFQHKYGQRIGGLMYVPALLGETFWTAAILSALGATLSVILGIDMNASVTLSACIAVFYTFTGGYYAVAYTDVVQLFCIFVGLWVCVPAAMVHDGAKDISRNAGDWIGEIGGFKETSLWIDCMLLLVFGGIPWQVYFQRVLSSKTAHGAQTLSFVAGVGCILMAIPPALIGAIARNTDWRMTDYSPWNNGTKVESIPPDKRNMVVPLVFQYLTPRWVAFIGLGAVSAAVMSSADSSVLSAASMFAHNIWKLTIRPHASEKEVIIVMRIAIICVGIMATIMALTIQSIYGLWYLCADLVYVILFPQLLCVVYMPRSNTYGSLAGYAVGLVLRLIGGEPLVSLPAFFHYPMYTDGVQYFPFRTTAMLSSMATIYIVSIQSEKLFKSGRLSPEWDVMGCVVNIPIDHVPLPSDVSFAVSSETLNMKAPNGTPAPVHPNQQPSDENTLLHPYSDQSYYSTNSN
In words: [3H] choline uptake of Xenopus oocytes injected with nematode cho-1 (C48D1.3) cRNA. The format is cell-based, C. elegans. The procedure:
In the presence of cap analog, cRNA was synthesized in vitro with SP6 or T7 RNA polymerase. 20 to 30 ng capped RNA was microinjected into oocytes (stage V to VI) of Xenopus. […] The oocytes completing uptake were solubilized with 10% SDS, and the amount of [^3H] was measured by a liquid scintillation counter.

Data set [4] concerns the target T2, rat CHT1 (high-affinity choline transporter) (Rattus norvegicus, UniProt Q9JMD7).
T2 construct: expressed in transfected cells; host or cells: Xenopus oocytes microinjected with CHT1 cRNA (clone in pSPUTK vector)
T2 sequence (Q9JMD7 1-580): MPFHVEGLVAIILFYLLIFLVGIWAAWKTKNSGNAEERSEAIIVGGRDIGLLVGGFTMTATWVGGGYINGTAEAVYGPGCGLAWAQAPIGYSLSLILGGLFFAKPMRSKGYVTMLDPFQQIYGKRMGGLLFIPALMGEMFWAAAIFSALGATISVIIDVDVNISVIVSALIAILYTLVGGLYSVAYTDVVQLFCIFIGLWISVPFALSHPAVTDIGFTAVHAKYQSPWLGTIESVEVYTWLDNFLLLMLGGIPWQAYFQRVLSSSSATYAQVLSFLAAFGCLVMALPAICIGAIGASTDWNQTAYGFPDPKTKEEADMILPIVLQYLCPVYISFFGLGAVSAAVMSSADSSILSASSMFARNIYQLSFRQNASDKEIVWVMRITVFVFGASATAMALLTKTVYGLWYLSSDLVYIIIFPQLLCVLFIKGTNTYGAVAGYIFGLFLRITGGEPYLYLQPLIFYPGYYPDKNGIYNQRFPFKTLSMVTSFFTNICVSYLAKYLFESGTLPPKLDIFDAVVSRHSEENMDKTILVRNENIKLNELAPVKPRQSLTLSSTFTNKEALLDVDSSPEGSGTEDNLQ
Briefly: [3H] choline uptake of Xenopus oocytes injected with CHT1 cRNA. In kind it is cell-based. As for the experimental part:
(§1) In the presence of cap analog, cRNA was synthesized in vitro with SP6 or T7 RNA polymerase. 20 to 30 ng capped RNA was microinjected into oocytes (stage V to VI) of Xenopus. The uptake was measured in basically same manner as described previously (Nature 360, 467-471, 1992). […] The oocytes completing uptake were solubilized with 10% SDS, and the amount of [^3H] was measured by a liquid scintillation counter.

Data set [5] concerns endogenous choline uptake of control oocytes. In words: Choline uptake of control Xenopus oocytes injected with water. The format is cell-based. To be noted: 10 μM HC3, oocytes injected with water. As for the experimental part:
as §1

Substrate in data set [6]: C[N+](C)(C)CCO
In words: cells, lysate or membranes. The conditions noted are these: other: Michaelis-Menten fit, water-injected uptake subtracted, n=3; pH 7.4.

Take `C[N+]1(C)CCOC(O)(c2ccc(-c3ccc(C4(O)C[N+](C)(C)CCO4)cc3)cc2)C1` (stereo not shown) [HC3, hemicholinium-3]: in data set [1] (1 μM HC3, brain synaptosomes of mammals), the “inhibition of high-affinity uptake of choline” value is recorded as “completely inhibited”. Further, the Ki in data set [1] (read-out: Ki of HC3 for high-affinity uptake of choline, brain synaptosomes of mammals) was 10 to 100 nM; in data set [2], 50000 nM; in data set [3] it was 50 nM; in data set [4] it was 2 to 3 nM. Besides, the “inhibition of cho-1 promoted choline uptake” value in data set [3] (1 μM HC3, Xenopus oocytes) is listed as “inhibited”. For the same molecule, the “inhibition of choline uptake of CHT1” value in data set [4] (0.1 μM HC3) is “completely inhibited”. Also, the “inhibition of Na+-dependent choline uptake of CHT1” value in data set [4] (CHT1 expressed in Xenopus oocytes, concentration not given) was “completely inhibited”. The “inhibition of choline uptake in control” value in data set [5] is listed as “only slight inhibition”.

B1: rat CHT1 (high-affinity choline transporter) (Rattus norvegicus) (protein)
chain: T2 sequence (Q9JMD7 1-580)
Regarding B1, the Km (as a rule, the substrate concentration at which the rate is half of its maximum) in data set [6] stood at 2.2 ± 0.2 µM.
